# Experimental data published in patent US11229636B2, “Substituted tetrahydroquinolinone compounds as ROR gamma modulators” (Aurigene Discovery Technologies Limited, priority 2015, dated 2022).
# pIC50: −log10 of the molar value.
# What was measured:
# [1] = system: EL-4 murine lymphoma cell line; details: cited from earlier work
# [2] = molecular target: RORγ LBD (Homo sapiens (Human), UniProt P51449); assay: ROR gamma radio-ligand binding assay (3H 25-Hydroxycholesterol competitive displacement, dextran charcoal method); details: for inhibition at 1 µM / RORγ ligand binding assay: % inhibition @1 μM: 1 μM compound; for inhibition at 10 µM / RORγ ligand binding assay: % inhibition @ 10 μM: 10 μM compound; for pIC50: in range
# How it was run: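 Human RORγ LBD (aa 247–497) was expressed as a GST fusion in E. coli and purified. For binding, 300 ng protein, 5 nM ³H-25-hydroxycholesterol and compound were incubated for 30 min at room temperature in 50 mM HEPES pH 7.5, 150 mM NaCl, 0.01% BSA and 5 mM MgCl2. After dextran-charcoal separation, the supernatant was counted and 10-point curves were fitted by variable-slope sigmoid.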
# [3] = molecular target: ROR gamma ligand binding domain (Homo sapiens (Human), UniProt P51449); assay: ROR gamma luciferase reporter assay (GAL4-ROR gamma LBD, HEK293 cells); format: cell-based; details: 48 hours treatment, read-out: RORγ luciferase Reporter assay: IC50 (nM) (in range)
# How it was run: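 HEK293 cells were co-transfected with a GAL4 DBD–RORγ LBD fusion (hRluc vector) and a 9xGAL4 UAS luc2P reporter, then treated with compounds for 48 h. Bright-Glo luminescence was used to derive potency.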
# ROR gamma ligand binding domain, sequence (P51449 269-508): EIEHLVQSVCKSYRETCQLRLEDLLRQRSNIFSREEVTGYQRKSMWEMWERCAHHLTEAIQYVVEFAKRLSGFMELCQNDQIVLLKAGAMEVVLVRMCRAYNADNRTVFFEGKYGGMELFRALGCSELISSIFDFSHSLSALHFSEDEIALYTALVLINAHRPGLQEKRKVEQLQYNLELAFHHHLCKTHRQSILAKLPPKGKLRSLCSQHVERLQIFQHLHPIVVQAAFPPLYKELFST
# RORγ LBD, sequence (P51449 268-518): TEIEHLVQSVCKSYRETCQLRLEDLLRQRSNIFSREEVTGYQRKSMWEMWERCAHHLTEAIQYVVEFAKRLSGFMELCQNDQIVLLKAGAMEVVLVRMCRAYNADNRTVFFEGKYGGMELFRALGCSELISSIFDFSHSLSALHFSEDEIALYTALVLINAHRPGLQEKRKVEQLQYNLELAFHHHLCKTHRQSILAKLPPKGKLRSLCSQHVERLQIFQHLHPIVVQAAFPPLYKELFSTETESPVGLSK
SMILES,inhibition at 1 µM [2] [%],inhibition at 10 µM [2] [%],pIC50 [2],IC50 [3] [nM],RORγ ligand binding assay: % inhibition @1 μM [2] [%],RORγ ligand binding assay: % inhibition @ 10 μM [2] [%],synthesis of IL-17 [1]
OC(c1ccc(-c2ccc(CN3CCN(Cc4ccncc4)CC3)cc2)c(F)c1)(C(F)(F)F)C(F)(F)F [SR2211],–,–,–,–,–,–,suppress the synthesis of IL-17
"CCS(=O)(=O)c1ccc(CC(=O)Nc2cc(C)c3c(n2)CCC(C)(c2ccc(OC)nc2)C3=O)cc1 (stereo not shown) [Compound 17, 2-(4-(ethylsulfonyl)phenyl)-N-(6-(6-methoxypyridin-3-yl)-4,6-dimethyl-5-oxo-5,6,7,8-tetrahydroquinolin-2-yl)acetamide]",92,96,–,< 100,–,–,–
"CCS(=O)(=O)c1ccc(CC(=O)Nc2ccc3c(n2)CCC(C)(c2cc(C)nc(C)n2)C3=O)cc1 (stereo not shown) [Compound 7, N-(6-(2,6-dimethylpyrimidin-4-yl)-6-methyl-5-oxo-5,6,7,8-tetrahydroquinolin-2-yl)-2-(4-(ethylsulfonyl)phenyl)acetamide]",91,100,> 6.82,100 to 500,–,–,–
"CCS(=O)(=O)c1ccc(CC(=O)Nc2ccc3c(n2)CCC(C)(c2nccn4cccc24)C3=O)cc1 (stereo not shown) [Compound 15, 2-(4-(ethylsulfonyl)phenyl)-N-(6-methyl-5-oxo-6-(pyrrolo[1,2-a]pyrazin-1-yl)-5,6,7,8-tetrahydroquinolin-2-yl)acetamide]",95,92,> 6.82,< 100,–,–,–
"CCS(=O)(=O)c1ccc(CC(=O)Nc2ccc3c(n2)CCC(C)(c2nc(C)cn4ccnc24)C3=O)cc1 (stereo not shown) [Compound 16, 2-(4-(ethylsulfonyl)phenyl)-N-(6-methyl-6-(6-methylimidazo[1,2-a]pyrazin-8-yl)-5-oxo-5,6,7,8-tetrahydroquinolin-2-yl)acetamide]",86,93,6.52 to 6.82,< 100,–,–,–
"CCS(=O)(=O)c1ccc(CC(=O)Nc2nc3c(cc2C)C(=O)C(C)(c2nccn4ccnc24)CC3)cc1 (stereo not shown) [Compound 11, 2-(4-(ethylsulfonyl)phenyl)-N-(6-(imidazo[1,2-a]pyrazin-8-yl)-3,6-dimethyl-5-oxo-5,6,7,8-tetrahydroquinolin-2-yl)acetamide]",25,71,–,> 500,–,–,–
"CCS(=O)(=O)c1ccc(CC(=O)Nc2ccc3c(n2)CCC(C)(c2nccn4ccnc24)C3=O)cc1 (stereo not shown) [Compound 6, 2-(4-(ethylsulfonyl)phenyl)-N-(6-(imidazo[1,2-a]pyrazin-8-yl)-6-methyl-5-oxo-5,6,7,8-tetrahydroquinolin-2-yl)acetamide]",72,96,6.52 to 6.82,100 to 500,–,–,–

# More lines, main results first:
inhibition at 1 µM [2] [%],inhibition at 10 µM [2] [%],pIC50 [2],IC50 [3] [nM],RORγ ligand binding assay: % inhibition @1 μM [2] [%],RORγ ligand binding assay: % inhibition @ 10 μM [2] [%],SMILES,synthesis of IL-17 [1]
86,90,6.52 to 6.82,> 500,–,–,"CCS(=O)(=O)c1ccc(CC(=O)Nc2cc(C)c3c(n2)CCC(C)(c2ccc(O)cn2)C3=O)cc1 (stereo not shown) [Compound 88, 2-(4-(ethylsulfonyl)phenyl)-N-(6-(5-hydroxypyridin-2-yl)-4,6-dimethyl-5-oxo-5,6,7,8-tetrahydroquinolin-2-yl)acetamide]",–
80,98,6.52 to 6.82,100 to 500,–,–,"COc1ccc(C2(C)CCc3nc(NC(=O)Cc4ccc(S(C)(=O)=O)cc4)cc(C)c3C2=O)nn1 (stereo not shown) [Compound 35, N-(6-(6-methoxypyridazin-3-yl)-4,6-dimethyl-5-oxo-5,6,7,8-tetrahydroquinolin-2-yl)-2-(4-(methylsulfonyl)phenyl)acetamide]",–
96,80,> 6.82,100 to 500,–,–,"CCS(=O)(=O)c1ccc(CC(=O)Nc2ccc3c(n2)CCC(C)(c2ncc(Cl)n4ccnc24)C3=O)cc1 (stereo not shown) [Compound 92, N-(6-(5-chloroimidazo[1,2-a]pyrazin-8-yl)-6-methyl-5-oxo-5,6,7,8-tetrahydroquinolin-2-yl)-2-(4-(ethylsulfonyl)phenyl)acetamide]",–
–,–,> 6.82,100 to 500,100,73,"CCS(=O)(=O)c1ccc(CC(=O)Nc2ccc3c(n2)CCC(C)(c2ncc(OC)cn2)C3=O)cc1 (single isomer, unassigned) [compound 112, 2-(4-(ethylsulfonyl)phenyl)-N-(6-(5-methoxypyrimidin-2-yl)-6-methyl-5-oxo-5,6,7,8-tetrahydroquinolin-2-yl)acetamide]",–
–,–,–,> 500,70,1,"CCS(=O)(=O)c1ccc(CC(=O)Nc2ccc3c(n2)CCC(C)(c2nccn4cc(C)nc24)C3=O)cc1 (single isomer, unassigned) [compound 106, 2-(4-(ethylsulfonyl)phenyl)-N-(6-methyl-6-(2-methylimidazo[1,2-a]pyrazin-8-yl)-5-oxo-5,6,7,8-tetrahydroquinolin-2-yl)acetamide]",–
76,95,–,100 to 500,–,–,"CCS(=O)(=O)c1ccc(CC(=O)Nc2cc(C)c3c(n2)CCC(C)(c2ccc(OC)cn2)C3=O)cc1 (stereo not shown) [Compound 20, 2-(4-(ethylsulfonyl)phenyl)-N-(6-(5-methoxypyridin-2-yl)-4,6-dimethyl-5-oxo-5,6,7,8-tetrahydroquinolin-2-yl)acetamide]",–
93,82,6.52 to 6.82,100 to 500,–,–,"CCS(=O)(=O)c1ccc(CC(=O)Nc2ccc3c(n2)CCC(C)(c2nccn4c(C)cnc24)C3=O)cc1 (stereo not shown) [Compound 49, 2-(4-(ethylsulfonyl)phenyl)-N-(6-methyl-6-(3-methylimidazo[1,2-a]pyrazin-8-yl)-5-oxo-5,6,7,8-tetrahydroquinolin-2-yl)acetamide]",–
